# Where “and” joins values, the source holds several entries; their conditions need not be identical. Identical values can stand only once. Like-named read-outs stand apart in the source and are kept apart here.
# T1: AT2 receptor (Rattus norvegicus, UniProt P35351)
# T1 construct: AT1 and AT2 receptor subtypes in rat adrenal cortex microsomes; from tissue; host or cells: rat adrenal cortical microsomes (13,000-102,000 g)
# T1 sequence (P35351 1-363): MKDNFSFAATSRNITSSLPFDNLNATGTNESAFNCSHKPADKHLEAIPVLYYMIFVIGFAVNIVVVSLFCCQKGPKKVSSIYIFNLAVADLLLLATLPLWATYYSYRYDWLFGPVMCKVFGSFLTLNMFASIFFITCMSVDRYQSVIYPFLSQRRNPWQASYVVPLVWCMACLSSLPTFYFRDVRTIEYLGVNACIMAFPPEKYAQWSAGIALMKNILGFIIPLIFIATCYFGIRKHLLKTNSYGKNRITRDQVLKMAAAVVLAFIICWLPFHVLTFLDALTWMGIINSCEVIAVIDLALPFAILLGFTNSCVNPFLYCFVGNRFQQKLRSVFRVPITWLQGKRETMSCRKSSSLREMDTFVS
# T2: AII receptors of rat adrenal medulla (Rattus norvegicus, UniProt P35351)
# T2 sequence (P35351 1-363): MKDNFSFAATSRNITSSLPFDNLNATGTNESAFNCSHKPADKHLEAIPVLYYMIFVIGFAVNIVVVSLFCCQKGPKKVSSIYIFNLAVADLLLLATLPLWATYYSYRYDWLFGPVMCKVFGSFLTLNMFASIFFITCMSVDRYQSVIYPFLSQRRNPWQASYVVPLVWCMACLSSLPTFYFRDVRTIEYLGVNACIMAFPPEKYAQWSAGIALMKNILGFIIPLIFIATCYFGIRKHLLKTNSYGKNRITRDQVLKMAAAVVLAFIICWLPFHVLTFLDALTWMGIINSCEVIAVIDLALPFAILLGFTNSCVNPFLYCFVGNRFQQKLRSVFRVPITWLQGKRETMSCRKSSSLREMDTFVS
# Legend:
# AT2 receptor = target: T1, AT2 receptor; experiment: [125I]AII binding to AT2 receptor, rat adrenal cortical microsomes, in the presence of 10^-5 M DuP 753 (DuP […]-insensitive sites)
# Method: (§1) Procedures for the preparation of adrenal cortical microsomes and details of the binding assays are described in Chiu et al. (1989) J. Pharmacol. Exp. Ther. 250:867-874. The same procedures and conditions were used for adrenal medullary microsomes. […] After 60 min. of incubation, the reaction was terminated by addition of cold assay buffer. The bound and free radioactivity were rapidly separated through glass-fiber filters, and the trapped radioactivity was determined by gamma counting.
# AT1 receptor = experiment: [125I]AII binding to AT1 receptor, rat adrenal cortical microsomes, in the presence of 10^-5 M EXP-655 (DuP 753-sensitive sites)
# Method: as §1
# [1] = test system: AII receptors of rat adrenal cortex; experiment: Total specific [125I]AII binding to rat adrenal cortical microsomes
# Method: After 60 min. of incubation, the reaction was terminated by addition of cold assay buffer. The bound and free radioactivity were rapidly separated through glass-fiber filters, and the trapped radioactivity was determined by gamma counting.
# [2] = target: T2, AII receptors of rat adrenal medulla; settings: autoradiography; DuP 753 or EXP-655 at 10^-6 M
# Method: (§2) Fresh tissue was frozen on powdered dry ice and stored at -70° C. until used. Sections were cut at 15 microns and thaw mounted onto gelatin subbed slides. […] Slides were placed under X-ray film (Kodak XAR-5) and exposed for 11/2 days before processing the film to produce the film autoradiograms. The slides were then fixed with paraformaldehyde vapor at 80° C. for two hours, dried under air, delipidated, and dipped in emulsion (Kodak NTB-2). The coated slides were exposed for 4-5 weeks, developed with Kodak D-19 and counter-stained with hemotoxylin-eosin to view the histology.
# [3] = test system: AII receptor subtypes of rat adrenal cortical membranes; experiment: [125I]AII binding to rat adrenal cortical membranes with and without DTT pretreatment
# Source text: 102:685-696, except the above binding assay conditions were used.
# [4] = test system: AII receptors of rat adrenal cortex; format: binding; settings: autoradiography; DuP 753 or EXP-655 at 10^-6 M
# Method: as §2
# [5] = target: T2, AII receptors of rat adrenal medulla; experiment: [125I]AII binding to rat adrenal medullary microsomes; set-up: from tissue; host or cells: rat adrenal medullary microsomes; settings: rat adrenal medulla
# Method: as §1
# [6] = test system: AII binding sites of rat aortic smooth muscle cells; experiment: AII receptor binding in rat aortic smooth muscle cells
# [7] = test system: AII receptors of rat adrenal medulla; experiment: [125I]AII binding to rat adrenal medullary microsomes; settings: rat adrenal medullary microsomes; for binding resistant to displacement: of total binding, 60 min
# Method: as §1
# pial arterial dilation = settings: rat cranial window, cited from earlier work
# [8] = reported in U.S. Pat. No. 4,812,462; cited from earlier work
# rabbit aorta = experiment: AII-induced rabbit aortic contractions; settings: at concentrations of up to 10^-5 M
# [9] = Blood pressure lowering in hypertensive animals (renal artery-ligated hypertensive rats); format: in vivo, rat; settings: doses up to 30 mg/kg, IV
# [10] = test system: potassium current in cultured neurones; settings: cited from earlier work
# [11] = test system: collagenase activity in cultured cardiac fibroblasts; settings: cited from earlier work
# [12] = test system: AII binding sites in the brain; experiment: Distribution of AII binding sites in brain slices
# Method: as §2
# [13] = test system: AII receptors of rat adrenal cortex; settings: reported in U.S. Pat. No. 4,812,462; cited from earlier work
# [14] = test system: chick chorioallantoic membrane; settings: cited from earlier work
# [15] = test system: trypsin activated collagenase in rat heart myocytes; settings: cited from earlier work
# [16] = in vivo; cited from earlier work
# [17] = cited from earlier work; for effect on avoidance learning: IVT
# [18] = cited from earlier work
# [19] = injected into the dorsal neostriatum; cited from earlier work
# [20] = test system: potassium stimulated release of [3H]ACh; settings: in vitro; cited from earlier work
# [21] = rat adrenal cortex microsomes, in the presence of 10^-5 M EXP-655, read-out: IC50 AT1
molecule,measurement,setting,value
"O[C@H](CS)[C@H](O)CS (racemic) [DTT, dithiothreitol]",sensitivity of AT2 receptor to DTT,AT2 receptor,resistant to DTT inactivation
same,sensitivity of AT1 receptor to DTT,AT1 receptor,particularly sensitive to inactivation by DTT
CCCCc1nc(Cl)c(CO)n1Cc1ccc(-c2ccccc2-c2nn[nH]n2)cc1 [DuP 753],plateau of constant binding,"[1]; over a two-log concentration increase, 60 min",about 28 % of the total receptor-bound AII
same,inhibition of total AII binding,[1]; rat adrenal cortex,80%
same,IC50,"[1]; rat adrenal cortex, read-out: IC50 on the sensitive sites",~5 nM
same,IC50,"[1]; rat adrenal cortical microsomes, DuP 753-sensitive site, read-out: approximated IC50, first site of biphasic displacement",~5 nM
same,labeling of the adrenal medulla,[2],not appreciably affected
same,effect of DTT on inhibition of AII binding,[3]; 5 mM DTT,essentially abolished in the presence of DTT
same,labeling over the adrenal cortex,[4],significantly reduced
same,inhibition of AII binding,[5],essentially inactive as an antagonist
same,"sensitivity of AII binding sites, rat aortic smooth muscle cells",[6],primarily the DuP 753-sensitive AII binding sites (AT1)
same,inhibition of binding,[7]; below 1×10^-6 M,10%
same,binding resistant to displacement,[7],About 90%
Cc1cc(Cn2cnc3c2CC(C(=O)O)N(C(=O)C(c2ccccc2)c2ccccc2)C3)ccc1N (stereo not shown) [EXP-655],block of pial arterial/arteriolar dilation,pial arterial dilation; listed as EXP 655,shown to block
same,antihypertensive activity as reported,[8],antihypertensive agent
same,inhibition of the total specific AII binding,"[1]; at 3×10^-5 M, rat adrenal cortical microsomes",20%
same,inhibition of total AII binding,[1]; rat adrenal cortex,20%
same,labeling of the adrenal medulla,[2],almost totally eliminated
same,antagonizing AII-induced rabbit aortic contractions,rabbit aorta,inactive
same,lowering blood pressure,[9],inactive
same,block of effect to increase potassium current,[10],shown to block
same,labeling over the adrenal cortex,[4],no apparent effect
same,IC50,AT1 receptor; [21],~300000 nM and 300000 nM
same,IC50,"AT1 receptor; rat adrenal cortex, read-out: inhibitory constant IC50, AT1 site",~300000 nM
same,block of effect to inhibit collagenase activity,[11],shown to block
same,sensitivity of AII binding sites in the brain,[12],"the majority of AII binding sites in the brain are DTT-insensitive, EXP-655-sensitive"
same,affinity for AII receptors as reported,[13],high affinity for AII receptors
same,inhibition of AII binding,[5],90%
same,block of angiotensin II-induced increase in microvascular density / angiogenesis,[14],shown to block
same,binding resistant to displacement,[7],10%
COc1ccc(-c2cccc3c2CC(C(=O)O)N(C(=O)C(c2ccccc2)c2ccccc2)C3)cc1C (stereo not shown) [Example 25],IC50,AT2 receptor,60 nM
same,IC50,AT1 receptor; [21],> 10000 nM
"O=C(O)C1Cc2cc(Oc3ccccc3)ccc2CN1C(=O)C(c1ccccc1)c1ccccc1 (stereo not shown) [Example 32, 2-Diphenylacetyl-6-phenoxy-1,2,3,4-tetrahydroisoquinoline-3-carboxylic acid]",IC50,AT2 receptor,70 nM
same,IC50,AT1 receptor; [21],> 10000 nM
Cc1cc(Cn2cnc3c2CC(C(=O)O)N(C(=O)C(c2ccccc2)c2ccccc2)C3)ccc1N (stereo not shown) [PD123177],block of pial arterial/arteriolar dilation,pial arterial dilation,block the pial arterial dilation
same,block of angiotensin II induced inhibition of trypsin activated collagenase,[15],block the angiotensin II induced inhibition of trypsin activated collagenase
NCCCC[C@H](OP(=O)(O)CCCCc1ccccc1)C(=O)N1CCC[C@H]1C(=O)O [SQ 29852],memory of previously learned tasks,[16],protective effects on memory of previously learned tasks
CNCC(=O)N[C@@H](CCCN=C(N)N)C(=O)N[C@H](C(=O)N[C@@H](Cc1ccc(O)cc1)C(=O)N[C@H](C(=O)N[C@@H](Cc1cnc[nH]1)C(=O)N1CCC[C@H]1C(=O)N[C@@H](C)C(=O)O)C(C)C)C(C)C [Saralasin],concentration giving complete displacement of AII,[1]; rat adrenal cortical microsomes,100 nM
same,IC50,"[1]; rat adrenal cortical microsomes, read-out: IC50, monophasic",1 nM
same,effect of DTT on inhibition of AII binding,[3]; 5 mM DTT,not significantly altered by DTT
same,preference for one AII receptor subtype relative to the other,AT1 receptor; AT1 vs AT2,no preference
C[C@H](CS)C(=O)N1CCC[C@H]1C(=O)O [captopril],effect on avoidance learning,[17],prevented the renin-induced avoidance disruption
same,scopolamine-induced disruption of performance,[18]; daily treatment,prevented
same,"light/dark habituation performance, rate of acquisition",[18]; subchronic treatment,increased the rate of acquisition
NC(=O)[C@@H]1CCCN1C(=O)[C@H](Cc1cnc[nH]1)NC(=O)[C@@H]1CCC(=O)N1 [thyrotropin releasing hormone],effect on retention of PA response,[19],no effect
"AI: AI (compared with AII) (DRVYIHPFHL; Angiotensin-1; UniProt P01019 25-34, looked up)",effect on potassium-stimulated release of ACh,[20],not AI
"AII: octapeptide hormone which is a component of the renin-angiotensin system (DRVYIHPF; Angiotensin-2; UniProt P01019 25-32, looked up)",labeling of the adrenal medulla,[2],potently inhibited the labeling
same,effect on retention of PA response,[19],disruption in retention of a PA response
same,enhancement of inhibitory potency by DTT,[3]; 5 mM DTT,2.5 fold
same,IC50,"[3]; read-out: IC50 in the absence of DTT, without DTT",1 nM
same,labeling over the adrenal cortex,[4],potently inhibited the labeling
same,effect on basal levels of ACh release,[20],without effects on basal levels
same,effect on potassium-stimulated release of ACh,[20],reduced potassium-stimulated release of ACh
CGP42112A,block of angiotensin II-induced increase in microvascular density / angiogenesis,[14],block the increase in microvascular density
"[1-sarcosine, 8-threonine]angiotensin II",effect on potassium-stimulated release of ACh,[20],antagonized
lysine-8-vasopressin,effect on retention of PA response,[19],no effect
"renin: an enzyme involved in endogenous AII biosynthesis (protein, UniProt P00797 67-406, looked up) Renin: LTLGNTTSSVILTNYMDTQYYGEIGIGTPPQTFKVVFDTGSSNVWVPSSKCSRLYTACVYHKLFDASDSSSYKHNGTELTLRYSTGTVSGFLSQDIITVGGITVTQMFGEVTEMPALPFMLAEFDGVVGMGFIEQAIGRVTPIFDNIISQGVLKEDVFSFYYNRDSENSQSLGGQIVLGGSDPQHYEGNFHYINLIKTGVWQIQMKGVSVGSSTLLCEDGCLALVDTGASYISGSTSSIEKLMEALGAKKRLFDYVVKCNEGPTLPDISFHLGGKEYTLTSADYVFQESYSSKKLCTLAIHAMDIPPPTGPTWALGATFIRKFYTEFDRRNNRIGFALAR",effect on avoidance learning,[17],disruption of avoidance learning
same,AII level in CSF after renin,"[17]; increased from 40, renin IVT",about 5000 fmol per mL
